Experimental data from ChEMBL document CHEMBL5226321, “Ivermectin: A Promising Therapeutic for Fighting Malaria. Current Status and Perspective” (J Med Chem, 2021).
Converted amounts (≈) assume the structure as drawn.

Key:
Anopheles gambiae [1] = assay: Insecticidal in Anopheles gambiae G3 assessed as lethal concentration fed with compound treated human blood at 150 microg/kg administered once; assay type: functional; details: dose 150 µg/kg
Anopheles gambiae [2] = assay: Insecticidal in Anopheles gambiae G3 assessed as sublethal dose re-blood fed on human arm; assay type: functional
Huh-7 [3] = assay: Antimalarial activity against liver stage Plasmodium berghei infected in human Huh-7 cells assessed as inhibition by bioluminescence assay; assay type: functional, cell-based
Culex pipiens = assay: Insecticidal in Culex pipiens larvae measured after 48 hrs; assay type: functional
Aedes aegypti = assay: Insecticidal in Aedes aegypti larvae measured after 48 hrs; assay type: functional
Anopheles stephensi = assay: Insecticidal in Anopheles stephensi larvae measured after 48 hrs; assay type: functional
Plasmodium vivax = assay: Antimalarial activity against Plasmodium vivax assessed as inhibition of sporogony in Anopheles sp. mosquito fed with blood containing plasma isolated from compound treated parasite-infected human observed after 7 days; assay type: functional, organism-based
Plasmodium falciparum [4] = assay: Antimalarial activity against asexual blood stage mefloquine-resistant Plasmodium falciparum Dd2 assessed as parasite growth inhibition by SYBR Green staining based fluorescence analysis; assay type: functional, organism-based
Huh-7 [5] = assay: Antiplasmodial activity against liver stage Plasmodium berghei infected in human Huh-7 cells assessed as inhibition of parasite infection incubated for 48 hrs by bioluminescence assay; assay type: functional, cell-based
[6] = Antimalarial activity against Plasmodium cynomolgi infected in rhesus macaque hepatocytes assessed as inhibition of liver-stage schizonts by Giemsa staining based microscopic analysis; assay type: functional, cell-based, Macaca mulatta; details: hepatocyte
Plasmodium falciparum [7] = assay: Antimalarial activity against asexual blood stage chloroquine-sensitive Plasmodium falciparum 3d7 assessed as parasite growth inhibition by SYBR Green staining based fluorescence analysis; assay type: functional, organism-based
Plasmodium falciparum [8] = assay: Antimalarial activity against Plasmodium falciparum late stage IV-V gametocytes assessed as parasite growth inhibition incubated for 48 hrs by BacTiterGlo assay; assay type: functional, organism-based
Plasmodium falciparum [9] = assay: Antiplasmodial activity against asexual blood stage Plasmodium falciparum 3d7 assessed as parasite growth inhibition incubated for 48 hrs by bioluminescence assay; assay type: functional, organism-based
Plasmodium falciparum [10] = assay: Antimalarial activity against asexual blood stage Plasmodium falciparum assessed as parasite growth inhibition incubated for 72 hrs by HRP2 - ELISA; assay type: functional, organism-based
Plasmodium falciparum [11] = assay: Antimalarial activity against asexual blood stage chloroquine-resistant Plasmodium falciparum Dd2 assessed as parasite growth inhibition by SYBR Green staining based fluorescence analysis; assay type: functional, organism-based

In the case of `CCN(Cc1ccc(Cl)nc1)/C(=C/[N+](=O)[O-])NC` [NITENPYRAM], the LC50 (Anopheles gambiae [1]) is reported as 0.111 mg/L (≈ 0.41 µM) and the LC25 (Anopheles gambiae [2]) is reported as 0.07865 mg/L (≈ 0.291 µM).

`COc1cc(NC(C)CCCN)c2ncccc2c1` (configuration not stated) [PRIMAQUINE] gave an IC50 (Huh-7 [3]; Homo sapiens, Huh-7) of 2.4 µM.

`C=C(C)[C@H]1C(=O)c2c3c(cc4c5c(n1c24)C[C@@]1(C)C5CC[C@H]2[C@](C)(/C=C/C=C(\C)C(=O)NC(C)(C)C)[C@@H](O)CC[C@@]21C)C1=CC(C)(C)OC(C)(C)C1[C@@H]3O` (some centres not stated) gave an LC50 (Anopheles gambiae [1]) of 0.76 mg/L (≈ 1.03 µM).

`CO[C@H]1C[C@H](O[C@H]2[C@H](C)O[C@@H](O[C@@H]3/C(C)=C/C[C@@H]4C[C@@H](C[C@]5(C=C[C@H](C)[C@@H](C(C)C)O5)O4)OC(=O)[C@@H]4C=C(C)[C@@H](O)[C@H]5OC/C(=C\C=C\[C@@H]3C)[C@]54O)C[C@@H]2OC)O[C@@H](C)[C@@H]1O` [ABAMECTIN COMPONENT B1B] gave an LC50 (Culex pipiens) of 2.42 ppb, an LC50 (Aedes aegypti) of 10.4 ppb and an LC50 (Anopheles stephensi) of 2.9 ppb.

Compound IVERMECTIN has an IC50 (Plasmodium vivax) of 0.00568 mg/L, an IC50 (Plasmodium falciparum [4]) of 1.92 µM and an IC50 (Huh-7 [5]) of 2.1 µM. It also gave an IC50 [6] of 10.4 µM, an IC50 (Plasmodium falciparum [7]) of 1.56 µM and an IC50 (Plasmodium falciparum [8]) of 0.5 µM. For the same compound, the IC50 (Plasmodium falciparum [9]) was 1.56 µM, the IC50 (Huh-7 [3]; huh-7) was 2.1 µM and the IC50 (Plasmodium falciparum [10]) was 0.1 µM. It also gave an IC50 (Plasmodium falciparum [11]) of 2.85 µM.
